Literature values in PMC7309225, “Synthesis, Biodistribution, and Radiation Dosimetry of a Novel mGluR5 Radioligand: ^18F-AZD9272” (ACS Chemical Neuroscience, 2020).
Where two headings read alike, the source gives them in different places.

Key:
mGluR5 = tested on: mGluR5; set-up: method as in PMID 29608920; details: 2TC, cited from earlier work
[1] = tested on: monoamine oxidase-B (MAO-B); set-up: method as in PMID 23541825; details: human brain stem, thalamus, amygdala, cerebellum, and ventral striatum; cited from earlier work

With `N#Cc1cc(F)cc(-c2nc(-c3ccc(F)cn3)no2)c1` [^11C-AZD9272] as the molecule, how does the VT (mGluR5; occipital cortex) read?
The VT was 6.5 mL/cm^3.

What about the VT (mGluR5; ventral striatum) of the same molecule?
The VT was 18.0 mL/cm^3.

And the “MAO-B component of binding” value [1]?
Its value is 90–95%.
